Data set [1] in a line: Filter type and excipient compatibility screen, retention of tracer on filter (FIG. 1). It is filed as physicochemical. Conditions: in PEG400 at levels of the excipient exceeding 10%; Sartorius Minisart 16596 HY 0.2 μm (FIG. 1). The protocol: In examples of experiments, tests were performed on prospective formulations with different filter types to screen for compatibility of the filter material. Both cellulose and polyethersulfone membranes retained unacceptable quantities of the drug substance, with the lowest retention values obtained using polyvinylidene difluoride (PVDF) and polytetrafluoroethylene (PTFE) derived membranes.
In this case, a solution of [^18F]NAV4694 in PEG400 appears to have low retention at levels of the excipient exceeding 10%.
In the ensuing experiments, each of the excipients were formulated at multiple concentration levels (within acceptable ranges) then treated with small quantities of [^18F]NAV4694 and finally filtered through the preferred filter units. The percent retention of drug substance was then directly calculated through measurement of the actual quantity of radioactivity retained on the filter and compared to that remaining in the filtrate.

A short description of data set [2]: [^18F]NAV4694 solution for injection: stability (radiochemical purity over time). In kind it is physicochemical. The protocol:
[^18F]NAV4694 solution for injection was tested over a range of radioactivity concentration values to determine the capacity and potential expiry at given concentrations.

The mark [3] stands for this setting: radioactivity concentration below about 75 mCi/mL.
Setting [4] is: very high activity levels (>100 mCi/mL).

For the compound `CNc1ccc(-c2cc3cc(O)ccc3o2)c([18F])n1` [[^18F]NAV4694, 2-[2-(^18F)fluoro-6-(methylamino)-3-pyridinyl)-5-benzofuranol], the “retention of the tracer on the filter” value in data set [1] is given as “low retention”. Further, in data set [2] (setting [3]), the initial radiochemical purity entry is listed as “high initial radiochemical purity” and the “time over which high radiochemical purity is retained” value is given as “retained over at least ten hours”. In data set [2] (setting [4]), the decomposition entry is listed as “accelerated decomposition” and the initial radiochemical purity result is listed as “lower initial radiochemical purity”.
